Data on 16 compounds can be found in patent US8431603B2, “3-phenylpyrazolo[5,1-b]thiazole compounds” (Eisai R&D Management Co., Ltd., priority 2008, dated 2013).

Assay [1] concerns Balb/c mice. Description: Light/dark box test in mice (anxiolytic effect). In kind it is in vivo. As to conditions: for anxiolytic effect in the light/dark box test: 30 mg/kg, oral administration; for minimal effective dose: Mus musculus, 1 h, minimum dose significantly prolonging time spent in the light box vs vehicle, oral, one hour prior to test. As for the experimental part: The light/dark box test in mice was carried out according to a modified method of Belzung C., Misslin R., Vogel E. et al. (Reference; Behavioural effects of the benzodiazepine receptor partial agonist RO16-6028 in mice, Psychopharmacology, 97, 388-391, 1989). The test apparatus used was a light/dark box comprising a covered black acrylic box (dark box; 15×10×20 cm), an uncovered white acrylic box (light box; 15×20×20 cm) and a black acrylic tunnel (10×7×4.5 cm) which connects dark box and light box and enables a mouse to freely move back and forth between the dark box and light box. In this test apparatus, however, a transparent acrylic polymer was used for the front side (20×20 cm) and back side (20×20 cm) of the light box to allow observation of the behavior. After setting illumination so that the light intensity of the floor of the light box was 150 Lux, 5-week-old male Balb/c mice (purchased from Nihon Charles River) were introduced into the dark box at the beginning of the test. For the test, the tested compound was suspended in 5% dimethylsulfoxide, 5% Cremopor EL and 90% physiological saline and orally administered to the test animals one hour prior to the start of the test.
The time spent in the light box was measured as an index of the anxiolytic effect, with “spend in the light box” defined as the state in which all limbs of the mice were on the floor of the light box. […] The statistical significance between the vehicle-treated group and the test compound-treated groups was analyzed by one way analysis of variance followed by Dunnett multiple comparison when multiple doses were set for the same test, and by the Mann-Whitney U test when only one dose was set.

For assay [2], the target named is T1, human CRFR1 (Homo sapiens, UniProt P34998).
T1 construct: The full-length CRFR1 gene was obtained by PCR using human brain cDNA library; expressed in transfected cells; pcDNA3.1 expression vector; membrane fraction used
T1 sequence (P34998 24-415): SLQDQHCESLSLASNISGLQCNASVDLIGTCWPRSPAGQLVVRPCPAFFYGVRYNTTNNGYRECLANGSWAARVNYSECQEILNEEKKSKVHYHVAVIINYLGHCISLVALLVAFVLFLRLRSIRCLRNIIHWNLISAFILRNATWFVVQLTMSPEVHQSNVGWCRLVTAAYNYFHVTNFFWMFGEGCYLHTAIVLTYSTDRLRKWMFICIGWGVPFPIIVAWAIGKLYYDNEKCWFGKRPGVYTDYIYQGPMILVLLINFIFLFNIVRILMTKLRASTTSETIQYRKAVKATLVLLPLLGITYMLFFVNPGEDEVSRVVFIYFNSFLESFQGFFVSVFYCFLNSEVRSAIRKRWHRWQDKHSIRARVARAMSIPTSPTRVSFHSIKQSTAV
Description: CRFR1 binding test (SPA competition with 125I-CRF, membrane fraction of CRFR1-expressing HEK293 cells). The following applies: 100 pM 125I-CRF, room temperature, read-out: CRF1 receptor binding capacity IC50. As for the experimental part:
The binding capacities of the compounds of the invention for CRF1 receptor (CRFR1) were evaluated.
The membrane fraction of human CRFR1 high-expressing cells was used as the material for a CRFR1 binding experiment. The CRFR1-expressing cells were prepared in the following manner. The full-length CRFR1 gene was obtained by PCR using human brain cDNA library (QuickClone™ Clontech). The obtained DNA fragment was inserted into a cloning vector and the nucleotide sequence was confirmed. cDNA having the proper nucleotide sequence was linked to an expression vector (pcDNA3.1™, Invitrogen). The CRFR1 expression vector was introduced into HEK293 cell, and the resistant cells which proliferated in culture medium containing G418 (1 mg/ml) were cloned by the limiting dilution method. Out of the cloned cells, cells having high binding affinity between the membrane fraction per unit of protein and sauvagine were selected according to the following binding experiment. And the selected cells were used for the experiments.
The cloned cells obtained in (1) were collected and suspended in ice-cooled membrane buffer (50 mM Tris-HCl, 5 mM MgCl2, 2 mM EGTA, 1 mM DTT, protease inhibitor cocktail (COMPLETE™, Roche Diagnostics) pH 7.3), and then the cells were disrupted with a Polytron ([…]) while cooling on ice (level 5, 10 seconds, 2-5 times, ice-cooling) and then centrifuged (2,000 rpm, 5 minutes, 4° C.), after which the supernatant was collected. Membrane buffer was added to the precipitate, and the mixture was subjected to Polytron treatment (same conditions as above) and centrifuged (same conditions as above), and the obtained supernatant was collected and combined with the previous supernatant. This was centrifuged (13,000 rpm (18,000×g), 30 minutes, 4° C.) to prepare cell membranes. The precipitated cell membranes were suspended in membrane buffer and disrupted with a Polytron (level 5, 10 seconds, 3-5 times, ice-cooling) to prepare a dispersed suspension. The protein assay was performed.
The following method (1) or (2) was performed for use as the cell membrane fraction.
(1) The above dispersed suspension was diluted with membrane buffer containing 0.1% BSA to a protein concentration of 200 μg/ml, for use as the cell membrane fraction
(2) The above dispersed suspension was frozen for preservation, and if needed, thawed, re-dispersed and diluted for used as the cell membrane fraction.
A binding competition experiment with CRF was conducted by the SPA (GE Healthcare) method using a 96-well plate. A mixture of 5 μg of the cell membrane fraction protein, 1 mg of SPA beads and 100 pM ^125I-CRF (Perkin Elmer) was allowed to stand at room temperature for at least 2 hours in the presence of a test compound, and the radioactivity of each well after centrifugation (1,200 rpm (260×g), 5 minutes, room temperature) was measured with a TopCount (registered trademark; Perkin Elmer).
The radioactivity with addition of a 4,000-fold excess of non-radioactive sauvagine as the nonspecific binding was subtracted from each value, and the resulting value was expressed as a percentage (% of control), with 100% as the radioactivity without addition of the test compound (control). The IC50 value was calculated from a binding inhibition curve drawn with test compound concentration on the horizontal axis and % (% of control) on the vertical axis.

In the case of `CCCCN(c1c(OC)nn2c(-c3c(OC)cc(COC)cc3OC)csc12)C1CCOCC1` [Example 1, N-Butyl-3-[2,6-dimethoxy-4-(methoxymethyl)phenyl]-6-methoxy-N-(tetrahydro-2H-pyran-4-yl)pyrazolo[5,1-b][1,3]thiazole-7-amine], in assay [1], the “anxiolytic effect in the light/dark box test” value is on record as “statistically significant effects” and the minimal effective dose was found to be 30 mg/kg.

`CCCCN(c1c(OC)nn2c(-c3c(OC)cc(COCC)cc3OC)csc12)C1CCOCC1` [Example 2, N-Butyl-3-[4-(ethoxymethyl)-2,6-dimethoxyphenyl]-6-methoxy-N-(tetrahydro-2H-pyran-4-yl)pyrazolo[5,1-b][1,3]thiazole-7-amine]: in assay [1], the “anxiolytic effect in the light/dark box test” value was “statistically significant effects” and the minimal effective dose is 30 mg/kg.

As to `CCOCc1cc(OC)c(-c2csc3c(N(CCC4CC4)C4CCOCC4)c(OC)nn23)c(OC)c1` [Example 3, N-(2-Cyclopropylethyl)-3-[4-(ethoxymethyl)-2,6-dimethoxyphenyl]-6-methoxy-N-(tetrahydro-2H-pyran-4-yl)pyrazolo[5,1-b][1,3]thiazole-7-amine], the IC50 in assay [2] came out at 65 nM. Further, in assay [1], the “anxiolytic effect in the light/dark box test” value is recorded as “statistically significant effects” and the minimal effective dose came out at 30 mg/kg.

For the compound `CCOCc1cc(OC)c(-c2csc3c(N(CC4CCC4)C4CCOCC4)c(OC)nn23)c(OC)c1` [Example 4, N-(Cyclobutylmethyl)-3-[4-(ethoxymethyl)-2,6-dimethoxyphenyl]-6-methoxy-N-(tetrahydro-2H-pyran-4-yl)pyrazolo[5,1-b][1,3]thiazole-7-amine], the IC50 in assay [2] amounted to 34 nM. In assay [1], the “anxiolytic effect in the light/dark box test” value was “statistically significant effects” and the minimal effective dose was 30 mg/kg.

For `CCOCc1cc(OC)c(-c2csc3c(N(CC4CC4)C4CCCOC4)c(OC)nn23)c(OC)c1` (stereo not drawn) [Example 5, N-(Cyclopropylmethyl)-3-[4-(ethoxymethyl)-2,6-dimethoxyphenyl]-6-methoxy-N-(tetrahydro-2H-pyran-3-yl)pyrazolo[5,1-b][1,3]thiazole-7-amine], the IC50 in assay [2] was 29 nM. Moreover, in assay [1], the “anxiolytic effect in the light/dark box test” value is reported as “statistically significant effects” and the minimal effective dose was 30 mg/kg.

In the case of `CCCN(c1c(OC)nn2c(-c3c(OC)cc(COCC)cc3OC)csc12)C1CCCOC1` (stereo not drawn) [Example 6, 3-[4-(Ethoxymethyl)-2,6-dimethoxyphenyl]-6-methoxy-N-propyl-N-(tetrahydro-2H-pyran-3-yl)pyrazolo[5,1-b][1,3]thiazole-7-amine], in assay [2], the IC50 worked out at 39 nM.

Take `COCc1cc(OC)c(-c2csc3c(N(CC4CCC4)C4CCOCC4)c(OC)nn23)c(OC)c1` [Example 7, N-(Cyclobutylmethyl)-3-[2,6-dimethoxy-4-(methoxymethyl)phenyl]-6-methoxy-N-(tetrahydro-2H-pyran-4-yl)pyrazolo[5,1-b][1,3]thiazole-7-amine]: the IC50 in assay [2] was determined as 46 nM.

With `CCCCCN(c1c(OC)nn2c(-c3c(OC)cc(COC)cc3OC)csc12)C1CCOCC1` [Example 8, 3-[2,6-Dimethoxy-4-(methoxymethyl)phenyl]-6-methoxy-N-pentyl-N-(tetrahydro-2H-pyran-4-yl)pyrazolo[5,1-b][1,3]thiazole-7-amine], in assay [2], the IC50 was 63 nM.

As to `COCc1cc(OC)c(-c2csc3c(N(CC4CC4)C4CCOCC4)c(OC)nn23)c(OC)c1` [Example 9, N-(Cyclopropylmethyl)-3-[2,6-dimethoxy-4-(methoxymethyl)phenyl]-6-methoxy-N-(tetrahydro-2H-pyran-4-yl)pyrazolo[5,1-b][1,3]thiazole-7-amine], in assay [1], the “anxiolytic effect in the light/dark box test” value is given as “statistically significant effects” and the minimal effective dose worked out at 30 mg/kg.

For the compound `CCCN(c1c(OC)nn2c(-c3c(OC)cc(COC)cc3OC)csc12)C1CCOCC1` [Example 10, 3-[2,6-Dimethoxy-4-(methoxymethyl)phenyl]-6-methoxy-N-propyl-N-(tetrahydro-2H-pyran-4-yl)pyrazolo[5,1-b][1,3]thiazole-7-amine], in assay [1], the “anxiolytic effect in the light/dark box test” value is recorded as “statistically significant effects” and the minimal effective dose worked out at 30 mg/kg.

`COCc1cc(OC)c(-c2csc3c(N(CC4CC4)C4CCCOC4)c(OC)nn23)c(OC)c1` (stereo not drawn) [Example 11, N-(Cyclopropylmethyl)-3-[2,6-dimethoxy-4-(methoxymethyl)phenyl]-6-methoxy-N-(tetrahydro-2H-pyran-3-yl)pyrazolo[5,1-b][1,3]thiazole-7-amine]: in assay [2], the IC50 worked out at 37 nM.

As for `COCc1cc(OC)c(-c2csc3c(N(CC4CC4C)C4CCOCC4)c(OC)nn23)c(OC)c1` (stereo not drawn) [Example 12, 3-[2,6-Dimethoxy-4-(methoxymethyl)phenyl]-6-methoxy-N-[(2-methylcyclopropyl)methyl]-N-(tetrahydro-2H-pyran-4-yl)pyrazolo[5,1-b][1,3]thiazole-7-amine], in assay [2], the concentration for half-maximal inhibition (IC50) was found to be 82 nM.

`CCCN(c1c(OC)nn2c(-c3c(Cl)cc(COC)cc3OC)csc12)C1CCOCC1` [Example 13, 3-[2-Chloro-6-methoxy-4-(methoxymethyl)phenyl]-6-methoxy-N-propyl-N-(tetrahydro-2H-pyran-4-yl)pyrazolo[5,1-b][1,3]thiazole-7-amine]: in assay [1], the “anxiolytic effect in the light/dark box test” value is given as “statistically significant effects” and the minimal effective dose was 30 mg/kg.

Consider `COc1cc(C#N)cc(OC)c1-c1csc2c(N(CC3CCOCC3)CC3CC3)c(OC)nn12` [Example 15, 4-{7-[(Cyclopropylmethyl)(tetrahydro-2H-pyran-4-ylmethyl)amino]-6-methoxypyrazolo[5,1-b][1,3]thiazol-3-yl}-3,5-dimethoxybenzonitrile], for which the IC50 in assay [2] came to 70 nM.

In the case of `COc1cc(OC)c(-c2csc3c(N(CC4CCOCC4)CC4CC4)c(OC)nn23)c(OC)c1` [Example 16, N-(Cyclopropylmethyl)-6-methoxy-N-(tetrahydro-2H-pyran-4-ylmethyl)-3-(2,4,6-trimethoxyphenyl)-pyrazolo[5,1-b][1,3]thiazole-7-amine], the concentration for half-maximal inhibition (IC50) in assay [2] is 29 nM.

On to `CCCN(c1c(OC)nn2c(-c3c(OC)cc(COC4CCC4)cc3OC)csc12)C1CCOCC1` [Example 17, 3-{4-[(Cyclobutyloxy)methyl]-2,6-dimethoxyphenyl}-6-methoxy-N-propyl-N-(tetrahydro-2H-pyran-4-yl)pyrazolo[5,1-b][1,3]thiazole-7-amine], for which the IC50 in assay [2] is 36 nM.

As a reminder, the minimal effective dose is the smallest amount tested that counted as effective. A low value points to an effect from little substance. As usually defined, the IC50 is the concentration that gives 50% inhibition.
